Test results published in US5792457A, “Antibody recognizing endothelial cell ligand for leukocyte CR3” (priority 1995, dated 1998).

Legend:
[1] = test system: blood-brain barrier permeability; test: Rat meningitis model (LOS): blood-brain barrier permeability (125I-albumin); format: in vivo, female Wistar rats; settings: for BBB permeability: percent of radioactivity in whole blood present in CSF
Description: (§1) Briefly, anesthetized female Wistar rats were placed under a micromanipulator and inoculated intracisternally with a 25 gauge needle. After removal of 50 μl of CSF (without visible blood contamination), rats were inoculated intracisternally with 50 μl (20 ng) of LOS using a 1 ml syringe with a 25 gauge needle. Ten to fifteen minutes after inoculation with LOS, the rats were treated by intravenous administration of the test substance: a solution of an FHA peptide in PBS, a solution of a control peptide in PBS, or an equal volume of PBS alone.
(§2) Three hours after LOS inoculation, 5 μCi of ^125 I-radiolabelled albumin in 50 μl normal saline was administered intravenously. One hour later, CSF was collected via intracisternal puncture and blood samples were collected via intracardiac puncture. CSF leukocytosis was determined by manually counting white blood cells using a hemacytometer, and blood-brain barrier permeability was determined as the percent of radioactivity in whole blood that was present in the CSF. Blood samples were obtained immediately prior to inoculation, immediately prior to treatment, and at 4 hours post-inoculation for determination of peripheral white blood cell concentrations.

cerebral infarct = test: Rat transient middle cerebral artery occlusion (MCAO): infarct volume; format: in vivo, male Wistar rats; settings: 50 nmol i.v. at reperfusion then 150 nmol i.p.; 2 hour MCAo, 2 day survival
CSF leukocytosis = test: Rat meningitis model (LOS): CSF leukocytosis; format: in vivo, female Wistar rats; settings: 600 nmol i.v., 4 hours after LOS
Description: The experiments were performed according to established protocols (Wispelway et al., 1988, J. Clin. Invest., 82: 1339-1346). Purified Haemophilus influenzae type b strain DL42 lipooligosaccharide (LOS) was prepared for inoculation by sonication for 30 minutes, dilution to the desired concentration (20 ng/50 μl) in normal saline or PBS, and sonication for an additional 15 to 30 minutes just prior to use.
as §1, §2

Factor X binding to CR3 = settings: cited from earlier work
[2] = test system: recognition of C3bi by antibody 12.1F9; test: Inhibition of binding of 12.1F9 to E^C3bi by peptides; parameters: species or system human; settings: peptides 50 μg/ml
From the text: Values are normalized to a control value of 100; data are expressed as the mean±SD of 6 experiments with duplicate wells.

[3] = ciliary extracts; cited from earlier work

RGDPHQGVLAQGDIIMDAKG [FHA Ca]
BBB permeability ([1]; 50 nmol): 5.8 ± 2.7% | BBB permeability ([1]; 100 nmol): 3.0 ± 2.2% | Inhibition of blood-brain barrier permeability (in words) ([1]; rat, in vivo): appeared to be dose dependent | volume of the infarct (cerebral infarct): approximately 25 % of the hemisphere

Ac-ETKEVDG-NH2 [Acetyl/Amide-FHA II]
Leukocytosis (CSF) (CSF leukocytosis): approximately 10,000 cells/ml | Leukocytosis (CSF) (CSF leukocytosis; listed as ac/am FHA II): 10,500 ± 8523 cells/ml

GYDTKQEDG [Factor X II]
inhibition of binding of CR3 bearing cells to Factor X (in words) (Factor X binding to CR3): competitively inhibit the binding of CR3 bearing tissue culture cells to purified Factor X

native FHA: Filamentous hemagglutinin, 220kD surface associated protein of Bordetella pertussis (List Biologicals)
block of binding of 12.1F9 to E^C3bi (in words) [2]: blocked binding almost completely | Adherence index ([2]; normalized to control value of 100, 6 experiments): 16 ± 16 | binding to lactosylceramide (in words) [3]: binds to lactosylceramide
